From US10392404B2, “Compounds and compositions as kinase inhibitors” (NOVARTIS AG, priority 2014, dated 2019)

What was measured:
C-RAF = molecular target: T1, C-RAF (Homo sapiens, UniProt P04049, Y340E/Y341E); assay: In vitro Raf activity determination (Alpha Screen, biotinylated kinase-dead MEK1 substrate), C-Raf; assay type: biochemical; settings: c-Raf approximately 4 nM; ATP 1 μM; pre-incubation 60 minutes; reaction 1 hour at room temperature
T1 construct: His tag (implied by nickel chromatography) (cleaved yes); StrepII tag (cleaved yes); made in house; host or cells: Sf9 insect cells (baculovirus), CRAF and h14-3-3 zeta co-expressed; MEK1 substrate from E. coli
From the text: CRAF cDNA was subcloned as full length protein, with Y340E and Y341E activating mutations, into a baculovirus expression vector for Sf9 insect cell expression. h14-3-3 zeta cDNA was subcloned into a baculovirus expression vector for SF9 insect cell expression. Sf9 cells co-expressing both proteins were lysed and subjected to immobilized nickel chromatography and eluted with Imidazole. A second column (StrepII binding column) was used and eluted with desthiobiotin. Protein Tags were removed using Prescission enzyme and the protein was further purified using a flowthrough step to remove tags.
C-Raf TR refers to a truncated C-Raf protein, a Δ1-324 deletion mutant. C-Raf FL refers to the full-length C-Raf protein.
(§1) Full length MEK1 with an inactivating K97R ATP binding site mutation is utilized as a RAF substrate. The MEK1 cDNA was subcloned with an N-terminal (his)6 tag into a vector for E. Coli expression. The MEK1 substrate was purified from E. Coli lysate by nickel affinity chromatography followed by anion exchange. The final MEK1 preparation was biotinylated (Pierce EZ-Link Sulfo-NHS-LC-Biotin) and concentrated.
(§2) Assay Materials: Assay buffer is 50 mM Tris, pH 7.5, 15 mM MgCl2, 0.01% Bovine Serum Albumin (BSA) and 1 mM dithiothreitol (DTT); Stop buffer is 60 mM ethylenediaminetetraacetic acid (EDTA) and 0.01% Tween® 20; b-Raf (V600E), active; biotinylated Mek, kinase dead; Alpha Screen detection kit (available from PerkinElmer™, #6760617R); Anti phospho-MEK1/2 (available from Cell Signaling Technology, Inc. #9121); 384 well low volume assay plates (White Greiner® plates).
(§3) Assay conditions: b-Raf (V600E) approximately 4 pM; c-Raf approximately 4 nM; biotinylated Mek, kinase dead approximately 10 nM; ATP 10 μM for BRAF (V600E) and 1 μM for CRAF; Pre-incubation time with compounds 60 minutes at room temperature; Reaction time 1 or 3 hours at room temperature.
(§4) Assay protocol: Raf and biotinylated Mek (kinase dead) were combined at 2× final concentrations in assay buffer (50 mM Tris, pH 7.5, 15 mM MgCl2, 0.01% BSA and 1 mM DTT) and dispensed […] per well in assay plates (Greiner white 384 well assay plates #781207) containing […] of 40× of a Raf kinase inhibitor test compound diluted in 100% DMSO. The plate was incubated for 60 minutes at room temperature. The Raf kinase activity reaction was started by the addition of […] per well of 2×ATP diluted in assay buffer. After 3 hours (b-Raf(V600E)) or 1 hour (c-Raf). The reactions were stopped and the phosphorylated product was measured using a rabbit anti-p-MEK (Cell Signaling, #9121) antibody and the Alpha Screen IgG (ProteinA) detection Kit (PerkinElmer #6760617R), by the addition of […] to the well of a mixture of the antibody (1:2000 dilution) and detection beads (1:2000 dilution of both beads) in Stop/bead buffer (25 mM EDTA, 50 mM Tris, pH 7.5, 0.01% Tween20). The additions were carried out under dark conditions to protect the detection beads from light. A lid was placed on top of the plate and incubated for 1 hour at room temperature, after which the luminescence was read on a PerkinElmer Envision instrument. The concentration of each compound for 50% inhibition (IC50) was calculated by non-linear regression using XL Fit data analysis software.

b-Raf (V600E) = molecular target: T2, b-Raf (V600E) (Homo sapiens, UniProt P15056, V600E); assay: In vitro Raf activity determination (Alpha Screen, biotinylated kinase-dead MEK1 substrate), B-Raf; assay type: biochemical; settings: b-Raf (V600E) approximately 4 pM; ATP 10 μM; pre-incubation 60 minutes; reaction 3 hours at room temperature
T2 construct: made in house
Experimental: as §1, §2, §3, §4

T1 sequence (P04049 whole entry Y340E/Y341E): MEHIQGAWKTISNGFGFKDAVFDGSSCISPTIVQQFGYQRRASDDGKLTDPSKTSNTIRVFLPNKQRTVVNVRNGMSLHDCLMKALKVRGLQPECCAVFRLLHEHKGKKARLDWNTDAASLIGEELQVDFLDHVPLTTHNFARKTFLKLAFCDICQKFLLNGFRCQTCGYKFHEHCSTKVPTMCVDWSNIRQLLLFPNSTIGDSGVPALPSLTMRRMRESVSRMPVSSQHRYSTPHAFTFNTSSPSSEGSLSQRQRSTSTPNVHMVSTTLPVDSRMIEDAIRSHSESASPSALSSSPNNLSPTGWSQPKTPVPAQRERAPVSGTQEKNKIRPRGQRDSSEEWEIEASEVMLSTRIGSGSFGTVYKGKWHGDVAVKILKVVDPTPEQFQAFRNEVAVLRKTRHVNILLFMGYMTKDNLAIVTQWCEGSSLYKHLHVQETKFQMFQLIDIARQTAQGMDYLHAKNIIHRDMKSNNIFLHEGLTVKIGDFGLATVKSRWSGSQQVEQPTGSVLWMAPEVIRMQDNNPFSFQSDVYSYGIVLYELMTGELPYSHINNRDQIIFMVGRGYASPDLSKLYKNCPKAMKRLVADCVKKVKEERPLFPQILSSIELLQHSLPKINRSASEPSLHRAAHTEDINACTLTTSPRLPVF
T1 sequence (P63104 whole entry partner): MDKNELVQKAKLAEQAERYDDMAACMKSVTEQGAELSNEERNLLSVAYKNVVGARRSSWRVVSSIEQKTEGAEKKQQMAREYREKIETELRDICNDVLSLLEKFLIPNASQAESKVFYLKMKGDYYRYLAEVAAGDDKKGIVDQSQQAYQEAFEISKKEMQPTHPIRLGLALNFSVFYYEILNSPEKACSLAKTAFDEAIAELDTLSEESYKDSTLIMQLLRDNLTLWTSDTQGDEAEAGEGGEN
T2 sequence (P15056 whole entry V600E): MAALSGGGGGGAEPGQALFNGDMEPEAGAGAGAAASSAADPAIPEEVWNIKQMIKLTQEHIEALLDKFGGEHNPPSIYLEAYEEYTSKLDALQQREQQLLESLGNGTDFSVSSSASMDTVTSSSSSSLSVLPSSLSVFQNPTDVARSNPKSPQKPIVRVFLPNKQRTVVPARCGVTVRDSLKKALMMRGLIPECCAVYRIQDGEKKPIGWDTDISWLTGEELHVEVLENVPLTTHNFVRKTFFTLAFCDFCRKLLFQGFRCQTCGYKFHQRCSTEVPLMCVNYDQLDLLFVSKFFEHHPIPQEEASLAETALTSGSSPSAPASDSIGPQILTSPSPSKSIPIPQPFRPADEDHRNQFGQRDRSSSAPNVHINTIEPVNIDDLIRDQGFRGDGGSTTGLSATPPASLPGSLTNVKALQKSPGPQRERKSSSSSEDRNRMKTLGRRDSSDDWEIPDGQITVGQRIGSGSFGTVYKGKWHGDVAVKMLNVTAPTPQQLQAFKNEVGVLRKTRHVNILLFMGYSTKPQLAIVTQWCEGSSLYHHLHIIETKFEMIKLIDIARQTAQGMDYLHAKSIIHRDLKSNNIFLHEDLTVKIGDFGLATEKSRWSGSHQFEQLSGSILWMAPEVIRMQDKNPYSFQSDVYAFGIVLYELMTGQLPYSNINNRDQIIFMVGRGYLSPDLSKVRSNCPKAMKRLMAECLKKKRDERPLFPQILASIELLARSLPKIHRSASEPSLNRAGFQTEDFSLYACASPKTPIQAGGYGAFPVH

SMILES	IC50 (C-RAF) [nM]	IC50 (b-Raf (V600E)) [nM]
Cc1ccc(NC(=O)c2ccnc(C(F)(F)F)c2)cc1-c1cnc(N(C)C)c(C#N)c1 [Example 25, N-(3-(5-cyano-6-(dimethylamino)pyridin-3-yl)-4-methylphenyl)-2-(trifluoromethyl) isonicotinamide]	0.127	0.9
Cc1ncc(NC(=O)c2ccnc(C(C)(C)C#N)c2)cc1-c1cnc(N(C)C)c(C#N)c1 [Example 26, N-(5′-cyano-6′-(dimethylamino)-2-methyl-[3,3′-bipyridin]-5-yl)-2-(2-cyanopropan-2-yl)isonicotinamide]	1.78	15
Cc1ccc(C(=O)Nc2cccc(C(F)(F)F)c2)cc1-c1cncc(C#N)c1 [Example 27, 3-(5-cyanopyridin-3-yl)-4-methyl-N-(3-(trifluoromethyl)phenyl)benzamide]	1.65	21.1
Cc1ncc(NC(=O)c2ccnc(C(C)(C)C#N)c2)cc1-c1cnc(NC(C)C)c(C#N)c1 [Example 28, N-(5′-cyano-6′-(isopropylamino)-2-methyl-[3,3′-bipyridin]-5-yl)-2-(2-cyanopropan-2-yl)isonicotinamide]	2.55	9.82
Cc1ccc(NC(=O)c2ccnc(C(C)(C)C#N)c2)cc1-c1cnc(N2CC(C)(O)C2)c(C#N)c1 [Example 29, N-(3-(5-cyano-6-(3-hydroxy-3-methylazetidin-1-yl)pyridin-3-yl)-4-methylphenyl)-2-(2-cyanopropan-2-yl)isonicotinamide]	0.671	4.05
Cc1ncc(NC(=O)c2ccnc(C(C)(C)C#N)c2)cc1-c1cnc(N2CC(C)(O)C2)c(C#N)c1 [Example 30, N-(5′-cyano-6′-(3-hydroxy-3-methylazetidin-1-yl)-2-methyl-[3,3′-bipyridin]-5-yl)-2-(2-cyanopropan-2-yl) isonicotinamide]	3.69	28.8
Cc1ccc(NC(=O)c2ccnc(C(C)(C)C#N)c2)cc1-c1cnc(Cl)c(C#N)c1 [Example 32, N-(3-(6-chloro-5-cyanopyridin-3-yl)-4-methylphenyl)-2-(2-cyanopropan-2-yl)isonicotinamide]	1.03	5.73
Cc1ccc(NC(=O)c2cccc(C(F)(F)F)c2)cc1-c1cnc(Cl)c(C#N)c1 [Example 33, N-(3-(6-chloro-5-cyanopyridin-3-yl)-4-methylphenyl)-3-(trifluoromethyl)benzamide]	0.432	3.4
Cc1ccc(NC(=O)c2cccc(C(F)(F)F)c2)cc1-c1cncc(C#N)c1 [Example 34, N-(3-(5-cyanopyridin-3-yl)-4-methylphenyl)-3-(trifluoromethyl) benzamide]	0.616	3.9
Cc1ccc(NC(=O)c2ccnc(C(C)(C)C#N)c2)cc1-c1cncc(C#N)c1 [Example 35, 2-(2-cyanopropan-2-yl)-N-(3-(5-cyanopyridin-3-yl)-4-methylphenyl) isonicotinamide]	1.95	11.1
COc1ncc(-c2cc(NC(=O)c3ccnc(C(C)(C)C#N)c3)ccc2C)cc1C#N [Example 36, N-(3-(5-cyano-6-methoxypyridin-3-yl)-4-methylphenyl)-2-(2-cyanopropan-2-yl)isonicotinamide]	0.479	2.76
COc1ncc(-c2cc(NC(=O)c3cccc(C(F)(F)F)c3)ccc2C)cc1C#N [Example 37, N-(3-(5-cyano-6-methoxypyridin-3-yl)-4-methylphenyl)-3-(trifluoromethyl) benzamide]	0.16	1.3
Cc1ncc(NC(=O)c2ccnc(C(C)(C)C#N)c2)cc1-c1cnc(N)c(C#N)c1 [Example 38, N-(6′-amino-5′-cyano-2-methyl-[3,3′-bipyridin]-5-yl)-2-(2-cyanopropan-2-yl)isonicotinamide]	1.81	16.4
CCCNc1ncc(-c2cc(NC(=O)c3cccc(C(F)(F)F)c3)ccc2C)cc1C#N [Example 39, N-(3-(5-cyano-6-(propylamino)pyridin-3-yl)-4-methylphenyl)-3-(trifluoromethyl) benzamide]	0.429	4.02
CCCNc1ncc(-c2cc(NC(=O)c3ccnc(C(F)(F)F)c3)ccc2C)cc1C#N [Example 40, N-(3-(5-cyano-6-(propylamino)pyridin-3-yl)-4-methylphenyl)-2-(trifluoromethyl) isonicotinamide]	0.233	1.57
Cc1ccc(NC(=O)c2cccc(C(F)(F)F)c2)cc1-c1cc(C#N)c(N)nc1C [Example 41, N-(3-(6-amino-5-cyano-2-methylpyridin-3-yl)-4-methylphenyl)-3-(trifluoromethyl) benzamide]	1.08	16.4
Cc1ccc(NC(=O)c2ccnc(C(F)(F)F)c2)cc1-c1cc(C#N)c(N)nc1C [Example 42, N-(3-(6-amino-5-cyano-2-methylpyridin-3-yl)-4-methylphenyl)-2-(trifluoromethyl) isonicotinamide]	0.672	10.2
Cc1ncc(NC(=O)c2cccc(C(F)(F)F)c2)cc1-c1cnc(S(C)(=O)=O)c(C#N)c1 [Example 44, N-(5′-cyano-2-methyl-6′-(methylsulfonyl)-[3,3′-bipyridin]-5-yl)-3-(trifluoromethyl) benzamide]	2.8	17.3
Cc1ncc(NC(=O)c2ccnc(C(F)(F)F)c2)cc1-c1cnc(S(C)(=O)=O)c(C#N)c1 [Example 45, N-(5′-cyano-2-methyl-6′-(methylsulfonyl)-[3,3′-bipyridin]-5-yl)-2-(trifluoromethyl) isonicotinamide]	1.13	5.95
Cc1ccc(NC(=O)c2ccnc(C(F)(F)F)c2)cc1-c1cnc(S(C)(=O)=O)c(C#N)c1 [Example 46, N-(3-(5-cyano-6-(methylsulfonyl)pyridin-3-yl)-4-methylphenyl)-2-(trifluoromethyl) isonicotinamide]	2.11	10.5
Cc1ncc(NC(=O)c2ccnc(C(F)(F)F)c2)cc1-c1cnc(-n2ccccc2=O)c(C#N)c1 [Example 51, N-(3′-cyano-2″- methyl-2-oxo-2H-[1,2′:5′,3″- terpyridin]-5″-yl)-2-(trifluoromethyl) isonicotinamide]	101	447
Cc1ncc(NC(=O)c2ccnc(C(F)(F)F)c2)cc1-c1cnc(Oc2ccccn2)c(C#N)c1 [Example 52, N-(5′-cyano-2-methyl-6′-(pyridin-2-yloxy)-[3,3′-bipyridin]-5-yl)-2-(trifluoromethyl) isonicotinamide]	9.28	27.2
Cc1ncc(NC(=O)c2ccnc(C(C)(C)C#N)c2)cc1-c1cnc(-n2ccccc2=O)c(C#N)c1 [Example 53, N-(3′-cyano-2″- methyl-2-oxo-2H-[1,2′:5′,3″- terpyridin]-5″-yl)-2 (2-cyanopropan-2-yl)isonicotinamide]	64	285
Cc1ncc(NC(=O)c2ccnc(C(C)(C)C#N)c2)cc1-c1cnc(Oc2ccccn2)c(C#N)c1 [Example 54, N-(5′-cyano-2-methyl-6′-(pyridin-2-yloxy)-[3,3′-bipyridin]-5-yl)-2-(2-cyanopropan-2-yl)isonicotinamide]	7.88	34.7
Cc1ncc(NC(=O)c2ccnc(C(C)(C)C#N)c2)cc1-c1cnc(N2CCS(=O)(=O)CC2)c(C#N)c1 [Example 55, N-(5′-cyano-6′-(1,1-dioxidothiomorpho-lino)-2-methyl-[3,3′-bipyridin]-5-yl)-2-(2-cyanopropan-2-yl)isonicotinamide]	2.36	11.6
